Values quoted from earlier work in patent US20090143362A1, “CARBAMAZEPINE FORMULATIONS” (priority 2007, published 2009).

Legend:
[1] = in presence of water, after 1 hour, X-ray powder diffraction
[2] = blood level

In the case of `NC(=O)N1c2ccccc2C=Cc2ccccc21` [Carbamazepine, 5H-dibenz-[b,f]azepine-5-carboxamide], the water solubility is listed as “poorly water-soluble”, the “conversion to carbamazepine dihydrate complete” value [1] is listed as 95% and the therapeutic range [2] is listed as 4 to 12 µg/mL.
